From patent publication US8623859B2, “Bradykinin B1 antagonists” (Evotec AG, priority 2008, dated 2014)
Where a name gives a salt, the structure may show the parent alone.

Target: T1, human B1 (Homo sapiens, UniProt P46663)
T1 construct: host or cells: CHO-K1
T1 sequence (P46663 1-353): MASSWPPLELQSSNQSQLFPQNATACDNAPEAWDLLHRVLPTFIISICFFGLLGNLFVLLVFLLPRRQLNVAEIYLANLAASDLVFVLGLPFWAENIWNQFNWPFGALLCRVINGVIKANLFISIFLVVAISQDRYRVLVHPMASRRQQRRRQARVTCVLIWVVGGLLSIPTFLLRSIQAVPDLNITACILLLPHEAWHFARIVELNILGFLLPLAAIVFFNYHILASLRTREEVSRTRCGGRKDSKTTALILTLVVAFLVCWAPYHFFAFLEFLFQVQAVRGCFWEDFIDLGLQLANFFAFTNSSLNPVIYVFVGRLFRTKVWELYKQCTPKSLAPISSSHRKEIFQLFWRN
Test: Calcium flux assay for Bradykinin B1 antagonist, CHO-K1 cell line expressing human B1
Assay type: cell-based
Conditions: CHO-K1 cells expressing human B1, agonist Lys-(Des-Arg)-Bradykinin, read-out: Potency (IC50 value against human B1)
In short: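 CHO-K1 cells expressing human B1, loaded with 5 μM Fluo-4AM (2 h, 37° C) in HEPES buffer pH 7.4 with probenecid and 0.1% BSA, were preincubated 30 min at 25° C with compound (8 concentrations, triplicate, 1% DMSO) before B1 agonist addition. Ca2+ fluorescence monitored at 538 nm; background-normalized integrated values plotted against log antagonist concentration.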

| IC50 [nM] | SMILES |
| --- | --- |
| < 10 | COc1cc(C)c(S(=O)(=O)N(C)Cc2nc(C(=O)N(C)Cc3ccc(C4=NCCN4)cc3)co2)c(C)c1 [Ex 70, N-[4-(4,5-dihydro-1H-imidazol-2-yl)benzyl]-2-({[(4-methoxy-2,6-dimethylphenyl)sulfonyl](methyl)amino}methyl)-N-methyl-1,3-oxazole-4-carboxamide] |
| 10 to 100 | COc1cc(C)c(S(=O)(=O)N(C)Cc2nc(C(=O)N(C)Cc3ccc(CN4CCC(NC(C)=O)C4)cc3)co2)c(C)c1 (stereo not shown) [Ex 170, N-(4-{[3-(Acetylamino)pyrrolidin-1-yl]methyl}benzyl)-2-({[(4-methoxy-2,6-dimethylphenyl)sulfonyl](methyl)amino}methyl)-N-methyl-1,3-oxazole-4-carboxamide] |
| < 10 | COc1cc(C)c(S(=O)(=O)N(C)Cc2nc(C(=O)N(C)CCc3ccc(C4=NCCN4)cc3)co2)c(C)c1 [Ex 69, N-{2-[4-(4,5-dihydro-1H-imidazol-2-yl)phenyl]ethyl}-2-({[(4-methoxy-2,6-dimethylphenyl)sulfonyl](methyl)amino}methyl)-N-methyl-1,3-oxazole-4-carboxamide] |
| 10 to 100 | COc1cc(C)c(S(=O)(=O)N(Cc2nnc(C(=O)N3CCN(CCCN(C)C)CC3)o2)C2CC2)c(C)c1 [Ex 276, N-Cyclopropyl-N-{[5-({4-[3-(dimethylamino)propyl]piperazin-1-yl}carbonyl)-1,3,4-oxadiazol-2-yl]methyl}-4-methoxy-2,6-dimethylbenzenesulfonamide] |
| 100 to 1000 | COc1cc(C)c(S(=O)(=O)N(C)Cc2cc(C(=O)NCCc3ccc(CNCC(C)C)cc3)co2)c(C)c1 [Ex 42, 5-({[(4-methoxy-2,6-dimethylphenyl)sulfonyl](methyl)amino}methyl)-N-[2-(4-{[(2-methylpropyl)amino]methyl}phenyl)ethyl]furan-3-carboxamide] |
| < 10 | COc1cc(C)c(S(=O)(=O)N(C)Cc2nc(C(=O)N(C)Cc3ccc(CN4CCC(OC)C4)cc3)co2)c(C)c1 (stereo not shown) [Ex 169, 2-({[(4-Methoxy-2,6-dimethylphenyl)sulfonyl](methyl)amino}methyl)-N-{4-[(3-methoxypyrrolidin-1-yl)methyl]benzyl}-N-methyl-1,3-oxazole-4-carboxamide] |
| 10 to 100 | COc1cc(C)c(S(=O)(=O)N(C)Cc2nc(C(=O)N(C)Cc3ccc(CN4CC(OC)C4)cc3)co2)c(C)c1 [Ex 173, N-{4-[(3-Methoxyazetidin-1-yl)methyl]benzyl}-2-({[(4-methoxy-2,6-dimethylphenyl)sulfonyl](methyl)amino}methyl)-N-methyl-1,3-oxazole-4-carboxamide] |
| 100 to 1000 | COc1cc(C)c(S(=O)(=O)N(Cc2nc(C(=O)N3CCC(C4CCNCC4)CC3)co2)C2CC2)c(C)c1 [Ex 239, N-{[4-(4,4′-Bipiperidin-1-ylcarbonyl)-1,3-oxazol-2-yl]methyl}-N-cyclopropyl-4-methoxy-2,6-dimethylbenzenesulfonamide trifluoroacetate] |
| 100 to 1000 | CN(CCc1ccc(C2=NCCN2)cc1)C(=O)c1coc(CN(C2CC2)S(=O)(=O)c2ccccc2C(F)(F)F)n1 [Ex 221, 2-[(Cyclopropyl{[2-(trifluoromethyl)phenyl]sulfonyl}amino)methyl]-N-{2-[4-(4,5-dihydro-1H-imidazol-2-yl)phenyl]ethyl}-N-methyl-1,3-oxazole-4-carboxamide trifluoroacetate] |
| < 10 | COc1cc(C)c(S(=O)(=O)N(Cc2noc(C(=O)N(C)Cc3nnc(CN4CCCC4)s3)n2)C2CC2)c(C)c1 [Ex 313, 3-({Cyclopropyl[(4-methoxy-2,6-dimethylphenyl)sulfonyl]amino}methyl)-N-methyl-N-{[5-(pyrrolidin-1-ylmethyl)-1,3,4-thiadiazol-2-yl]methyl}-1,2,4-oxadiazole-5-carboxamide] |
| 100 to 1000 | COc1cc(C)c(S(=O)(=O)N(C)Cc2nnc(C(=O)N3CCN(C4CCN(C)CC4)CC3)s2)c(C)c1 [Ex 332, 4-Methoxy-N,2,6-trimethyl-N-[(5-{[4-(1-methylpiperidin-4-yl)piperazin-1-yl]carbonyl}-1,3,4-thiadiazol-2-yl)methyl]benzenesulfonamide trifluoroacetamide] |
| 10 to 100 | COc1cc(C)c(S(=O)(=O)N(Cc2cc(C(=O)N(C)Cc3ccc(CN4CCC(O)CC4)cc3)co2)C2CC2)c(C)c1 [Ex 139, 5-({Cyclopropyl[(4-methoxy-2,6-dimethylphenyl)sulfonyl]amino}methyl)-N-{4-[(4-hydroxypiperidin-1-yl)methyl]benzyl}-N-methylfuran-3-carboxamide] |
| < 10 | COc1cc(C)c(S(=O)(=O)N(Cc2nc(C(=O)N3CCN(Cc4c[nH]c(C)n4)CC3)co2)C2CC2)c(C)c1 [Ex 250, N-Cyclopropyl-4-methoxy-2,6-dimethyl-N-{[4-({4-[(2-methyl-1H-imidazol-4-yl)methyl]piperazin-1-yl}carbonyl)-1,3-oxazol-2-yl]methyl}benzenesulfonamide] |
| < 10 | COc1cc(C)c(S(=O)(=O)N(C)Cc2nc(C(=O)N(C)Cc3ccc(CN4CCCC(O)C4)cc3)co2)c(C)c1 (stereo not shown) [Ex 179, N-{4-[(3-Hydroxypiperidin-1-yl)methyl]benzyl}-2-({[(4-methoxy-2,6-dimethylphenyl)sulfonyl](methyl)amino}methyl)-N-methyl-1,3-oxazole-4-carboxamide] |
| 100 to 1000 | COc1cc(C)c(S(=O)(=O)N(C)Cc2nc(C(=O)N(C)Cc3ccc(C4=NCCN4)cc3)cs2)c(C)c1 [Ex 81, N-[4-(4,5-dihydro-1H-imidazol-2-yl)benzyl]-2-({[(4-methoxy-2,6-dimethylphenyl)sulfonyl](methyl)amino}methyl)-N-methyl-1,3-thiazole-4-carboxamide] |
| < 10 | COc1cc(C)c(S(=O)(=O)N(Cc2nnc(C(=O)N(C)Cc3ccc(CN4CCCC4)cc3)o2)C2CC2)c(C)c1 [Ex 281, 5-({Cyclopropyl[(4-methoxy-2,6-dimethylphenyl)sulfonyl]amino}methyl)-N-methyl-N-[4-(pyrrolidin-1-ylmethyl)benzyl]-1,3,4-oxadiazole-2-carboxamide] |
| 100 to 1000 | COc1cc(C)c(S(=O)(=O)N(Cc2nc(C(=O)N3CC4CCNCC4C3)co2)C2CC2)c(C)c1 (stereo not shown) [Ex 205, N-Cyclopropyl-4-methoxy-2,6-dimethyl-N-{[4-(octahydro-2H-pyrrolo[3,4-c]pyridin-2-ylcarbonyl)-1,3-oxazol-2-yl]methyl}benzenesulfonamide] |
| < 10 | COc1cc(C)c(S(=O)(=O)N(Cc2nc(C(=O)N(C)Cc3ccc(CN4CCC(NC(C)=O)C4)cc3)co2)C2CC2)c(C)c1 (stereo not shown) [Ex 185, N-(4-{[3-(Acetylamino)pyrrolidin-1-yl]methyl}benzyl)-2-({cyclopropyl[(4-methoxy-2,6-dimethylphenyl)sulfonyl]amino}methyl)-N-methyl-1,3-oxazole-4-carboxamide] |
| < 10 | COc1cc(C)c(S(=O)(=O)N(Cc2nc(C(=O)N(C)Cc3nnc(CN4CCCC4)s3)co2)C2CC2)c(C)c1 [Ex 199, 2-({Cyclopropyl[(4-methoxy-2,6-dimethylphenyl)sulfonyl]amino}methyl)-N-methyl-N-{[5-(pyrrolidin-1-ylmethyl)-1,3,4-thiadiazol-2-yl]methyl}-1,3-oxazole-4-carboxamide trifluoroacetate] |
| < 10 | COc1cc(C)c(S(=O)(=O)N(Cc2nnc(C(=O)N3CCC(CCN4CCCC4)CC3)o2)C2CC2)c(C)c1 [Ex 274, N-Cyclopropyl-4-methoxy-2,6-dimethyl-N-[(5-{[4-(2-pyrrolidin-1-ylethyl)piperidin-1-yl]carbonyl}-1,3,4-oxadiazol-2-yl)methyl]benzenesulfonamide] |
| < 10 | CN(Cc1ccc(C2=NCCN2)cc1)C(=O)c1coc(CN(C)S(=O)(=O)c2c(Cl)cccc2Cl)c1 [Ex 23, 5-({[(2,6-dichlorophenyl)sulfonyl](methyl)amino}methyl)-N-[4-(4,5-dihydro-1H-imidazol-2-yl)benzyl]-N-methylfuran-3-carboxamide] |
| 10 to 100 | COc1cc(C)c(S(=O)(=O)N(Cc2cc(C(=O)N(C)Cc3ccc(CN4CCCC4)cc3)co2)C2CC2)c(C)c1 [Ex 57, 5-({Cyclopropyl[(4-methoxy-2,6-dimethylphenyl)sulfonyl]amino}methyl)-N-methyl-N-[4-(pyrrolidin-1-ylmethyl)benzyl]furan-3-carboxamide] |
| < 10 | COc1cc(C)c(S(=O)(=O)N(Cc2nc(C(=O)N(C)Cc3nc(CN4CCCC4)cs3)co2)C2CC2)c(C)c1 [Ex 200, 2-({Cyclopropyl[(4-methoxy-2,6-dimethylphenyl)sulfonyl]amino}methyl)-N-methyl-N-{[4-(pyrrolidin-1-ylmethyl)-1,3-thiazol-2-yl]methyl}-1,3-oxazole-4-carboxamide trifluoroacetate] |
| 100 to 1000 | COc1cc(C)c(S(=O)(=O)N(C)Cc2nnc(C(=O)N(C)Cc3ccc(CN4CCCC4)cc3)s2)c(C)c1 [Ex 329, 5-({[(4-Methoxy-2,6-dimethylphenyl)sulfonyl](methyl)amino}methyl)-N-methyl-N-[4-(pyrrolidin-1-ylmethyl)benzyl]-1,3,4-thiadiazole-2-carboxamide] |

| SMILES | IC50 [nM] |
| --- | --- |
| COc1cc(C)c(S(=O)(=O)N(Cc2nc(C(=O)N3CC4CCN(C5CN6CCC5CC6)CC4C3)co2)C2CC2)c(C)c1 (stereo not shown) [Ex 207, N-[(4-{[5-(1-Azabicyclo[2.2.2]oct-3-yl)octahydro-2H-pyrrolo[3,4-c]pyridin-2-yl]carbonyl}-1,3-oxazol-2-yl)methyl]-N-cyclopropyl-4-methoxy-2,6-dimethylbenzenesulfonamide trifluoroacetate] | < 10 |
